In US20210177881A1, “MEDICAMENT FOR PREVENTING AND/OR TREATING PAIN AND/OR FEVER, COMPOSITE PRODUCT AND USE THEREOF” (SHANGHAI TONGLIAN PHARMACEUTICAL CO., LTD., priority 2018, published 2021):

Assays:
mice [1] = assay: Analgesic experiment of writhing method in mice (acetic acid); assay type: in vivo, Kunming mice; conditions: 15 mg/kg once on the day of the experiment
mice [2] = assay: Analgesia experiment on a hot plate in mice; assay type: in vivo, Kunming mice; conditions: 15 mg/kg
Text: The mouse hot plate method is a classic method for screening analgesics. Its principle is to put the mouse on a hot plate heated to a constant temperature of (55±0.1 DEG C.) in advance, and when the foot of the mouse is stimulated by the hot plate to produce pain, the time required for foot licking is taken as the pain threshold, which is taken as the observation index, and the changes of threshold before and after medication are compared to evaluate the analgesic effect.
Before the experiment, the mice in each group were given intragastric administration. The mice in the blank control group were given the same volume of normal saline every day for 3 consecutive days.
The mice were put on a hot plate pain meter heated to 55 DEG C. in advance, and the time from putting into the hot plate to licking hind feet was recorded with a stopwatch as the pain threshold of the mice. […] It was measured once at 30, 60, 90 and 120 min after administration. After the end of the experiment, the percentage of pain threshold increase was calculated according to the measured average value of pain threshold. The percentage of pain threshold increase %=(an average pain threshold after administration−an average pain threshold before administration)÷the average pain threshold before administration×100%.

[3] = tested on: rats with tibial cancer pain; assay: van Frey mechanical pain threshold in rats with tibial cancer pain (Walker256); assay type: in vivo, rat
Protocol: Walker rat breast cancer cells were purchased from Shanghai Institute of Biomedical Engineering. The abdominal cavity of female Wistar rats of 70-80 g was inoculated with 1 ml of ascites tumor (about 2×10^7 cells /ml). After 7-10 days, 5 ml of ascites was extracted and centrifuged for 3 minutes (1300 rpm). After precipitation, washing was performed with 10 ml PBS, and then centrifuged and precipitated again. Then, resuspending was performed with PBS, counting was performed, the cell concentration was adjusted to 1×10^7 cells/ml by PBS and placed in an ice box for later use.
Rats were anesthetized by intraperitoneal injection of 10% chlorate hydrate (4 ml/kg body weight), a skin was prepared at the right knee joint, and the skin was disinfected with 75% alcohol. The knee joint was fixed with the left hand to make the skin on its surface tense. A hole with a depth about 1 cm was drilled along the longitudinal axis of tibia at the medial edge of patellar ligament of the knee joint with a 7# needle. Then, a microsampler with tumor cells (before injection, 1 μl of air, 2 μl of gelatin sponge aqueous solution, 1 μl of air, 4 μl of tumor cells or PBS were inhaled in turn) was used, and 4 μl of tumor cells was injected into the tibia bone marrow cavity; The rats in the control group were injected with the same amount of PBS, and finally all of them were sealed with 2 μl of gel sponge solution. After injection, the needles were kept for 1 minute to prevent the injection from oozing out.
Rats were divided into two groups: a PBS injection control group and a Walker256 model group. The radiation paw withdrawal latency (PWL) was measured before modeling as the basic pain threshold, and the PWL was measured every other day after modeling as the thermal hyperalgesia threshold. At the same time, the mechanical pain caused by von Frey filament was measured. The threshold of mechanical pain was measured before modeling as the basic pain threshold, and the threshold of mechanical allodynia was measured every other day after modeling.
After successfully establishing the model of tibia cancer pain, continuous intragastric administration was performed for 12 days. The rats in the model group were intragastrically given the same volume of normal saline.

[4] = literature reports; cited from earlier work
[5] = tested on: rats of the dry yeast fever model; assay: Common fever model of rats induced by dry yeast; assay type: in vivo; conditions: 30 mg/kg intragastric
Protocol: Male SD rats, with a weight of 220-260 g, were fed adaptively for 3 days, ate food and drank water freely with 12 hours of day-night circle. […] Each group was administrated with the drug based on 1 ml/100 g body weight by intragastric administration. […] Operating steps: except that the LPS in Experiment 1 was replaced by the dry yeast, other experimental operating steps and dosage selections were the same as those in Experiment 1.

[6] = tested on: rats of the LPS fever model; assay: LPS-induced common fever model in rats; assay type: in vivo, Sprague Dawley rats; conditions: 30 mg/kg intragastric
Protocol: Male healthy Sprague Dawley rats (SPF), with a weight of 220-260 g, purchased from Liaoning Changsheng Biotechnology Co., Ltd., with a license number of SCXK (Liao) 2015-0001. […] Sodium chloride injection ([…], 500 mL): (Shijiazhuang No.4 Pharmaceutical Co., Ltd), Batch number: 101217406; 0.9% sodium chloride injection was dissolved and diluted to 1 mg/ml, then packed in EP tubes and stored at −80 DEG C. for later use; immediately before use, it was diluted with 0.9% sodium chloride injection into a sterile injection of 10 μg /ml(100 μg /kg). Male SD rats, with a weight of 220-260 g, were fed adaptively for 3 days, ate food and drank water freely with 12 hours of day-night circle. […] Each group was administrated with the drug based on 1 ml/100 g body weight by intragastric administration.

[7] = 15 mg/kg on the last day, same side

Q: With `CN1CC[C@]23c4c5ccc(O)c4O[C@H]2[C@@H](O)C=C[C@H]3[C@H]1C5.Cl` [positive control, morphine hydrochloride] as the compound, how does the analgesic rate (mice [1]) read?
A: 45.83%

Q: What about the times of writhing (mice [1]) of the same compound?
A: 30.17 ± 6.14 n

Q: And the “Percentage of pain threshold increase” value (mice [2]; 30 min)?
A: 68.11%

Q: And the “Percentage of pain threshold increase” value (mice [2]; 60 min)?
A: 54.01%

Q: What about the “Percentage of pain threshold increase” value (mice [2]; 90 min) of the same compound?
A: 51.90%

Q: What about the “Percentage of pain threshold increase” value (mice [2]; 120 min) of the same compound?
A: 38.17%

Q: And the “analgesic rate, opposite side” value ([3]; 15 mg/kg on the last day)?
A: 133.3%

Q: What about the “van Frey mechanical pain threshold, opposite side” value ([3]; 15 mg/kg on the last day) of the same compound?
A: 6.3 ± 0.5 g

Q: What about the “analgesic rate, same side” value [3, 7] of the same compound?
A: 205.5%

Q: What about the “van Frey mechanical pain threshold, same side” value [3, 7] of the same compound?
A: 5.5 ± 0.2 g

Q: What about the “analgesic rate, opposite side” value ([3]; 80 mg/kg intragastric, 12 days) of the same compound?
A: 125.9%

Q: What about the “van Frey mechanical pain threshold, opposite side” value ([3]; 80 mg/kg intragastric, 12 days) of the same compound?
A: 6.1 ± 0.2 g

Q: What about the “van Frey mechanical pain threshold, same side” value ([3]; 80 mg/kg intragastric, 12 days, same side) of the same compound?
A: 5.2 ± 0.6 g

Q: Which absolute oral bioavailability [4] does the source give for spiramycin here?
A: 30-40%

Q: With `CC(C)Cc1ccc(C(C)C(=O)O)cc1` (centres unmarked) [ibuprofen, Ibuprofen] as the compound, how does the “after administration ΔT” value ([5]; 1 h) read?
A: 0.26 ± 0.26 °C

Q: And the “after administration ΔT” value ([5]; 2 h)?
A: 0.40 ± 0.31 °C

Q: And the “after administration ΔT” value ([5]; 4 h)?
A: 0.54 ± 0.38 °C

Q: And the “after administration ΔT” value ([6]; 1 h)?
A: 0.27 ± 0.27 °C

Q: What about the “after administration ΔT” value ([6]; 2 h) of the same compound?
A: 0.33 ± 0.43 °C

Q: What about the “after administration ΔT” value ([6]; 4 h) of the same compound?
A: 0.34 ± 0.38 °C

Q: What about the “after administration ΔT” value ([6]; 6 h) of the same compound?
A: 1.23 ± 0.24 °C

Q: And the “after administration ΔT” value ([6]; 8 h)?
A: 1.32 ± 0.24 °C

Q: And the “after administration ΔT” value ([6]; 10 h)?
A: 1.23 ± 0.39 °C
